Values of other authors in publication PMC8969080 (Dalton transactions (Cambridge, England : 2003), 2022).
Read-outs that look alike come from different tables or passages of the source.

Conditions: 1:1 Metal/Ligand, 50 μM

Calculated pM (−log[M]free; M = Cu^2+) (pH 6.6): 9.7
Calculated pM (−log[M]free; M = Cu^2+) (pH 7.4): 10.7
Structure (SMILES): O=C(O)CN(CCN(CC(=O)O)CC(=O)O)CCN(CC(=O)O)CC(=O)O [DTPA, diethylenetriaminepentaacetic acid]
